Measured values published in US20250270512A1, “ADDITIVE FOR UNDIFFERENTIATION MAINTAINING MEDIUM” (AJINOMOTO CO., INC., priority 2017, published 2025).
Entries after “also recorded” stand apart in the source; their conditions may differ.

What was measured:
Format in all cases: cell-based
[1] = test system: human induced pluripotent stem cells 201B7; test: Proliferation promoting effect of L-tryptophan metabolites in mTeSR1, cell coating rate by IncuCyte, 201B7; conditions: mTeSR1 medium, final 50, 100, 200, 500, 1000 μM, 0-120 hr
Procedure: L-kynurenine (Sigma-Aldrich Co. LLC: […]) was added at a final concentration of 50, 100, 200, 500, 1000 μM to mTeSR1 medium and the proliferation promoting effect was examined using the prepared medium. Y-27632 was added at a final concentration of 10 μM for 2 days after seeding. As a basement membrane matrix, Matrigel (Japan Becton, Dickinson and Company) was applied on a 6 well plate and 20,000 cells were single cell seeded per well. Two days after the cell seeding, evaluation was performed using the medium free of Y-27632 and prepared as mentioned above. The time of L-kynurenine addition was taken as 0 and the cell coating rate was measured using IncuCyte at 0, 24, 48, 72, 96 and 120 hr later. […] Kynurenic acid (Sigma-Aldrich Co. LLC: […]) was added at a final concentration of 50, 100, 200, 500, 1000 μM to mTeSR1 medium and the proliferation promoting effect was examined using the prepared medium. Y-27632 was added at a final concentration of 10 μM for 2 days after seeding. As a basement membrane matrix, Matrigel (Japan Becton, Dickinson and Company) was applied on a 6 well plate and 20,000 cells were single cell seeded per well. […] The time of kynurenic acid addition was taken as 0 and the cell coating rate was measured using IncuCyte at 0, 24, 48, 72, 96 and 120 hr later.

[2] = test system: human iPS cell 201B7 strain; test: Expression of undifferentiated marker after addition of high concentration of L-tryptophan; conditions: data not shown
[3] = test system: human induced pluripotent stem cells 253G4; test: Proliferation promoting effect of L-tryptophan, cell coating rate by IncuCyte, 253G4; conditions: mTeSR1 medium, final 44-1408 μM, 24-120 hr
Procedure: (§1) Then, the proliferation promoting effect of L-tryptophan was evaluated using other strain 253G4 of human induced pluripotent stem cell (iPS cell) and human embryonic stem cell H9 strain. As the medium, mTeSR1 (STEM CELL Technologies Inc.: 05850) was used and culturing was performed under 5% CO2/37° C. conditions.
(§2) L-tryptophan (Sigma-Aldrich Co. LLC: T8941) was added to mTeSR1 medium (STEM CELL Technologies Inc.: 05850) at a given concentration, used for culture and the effect thereof was examined.
(§3) L-tryptophan (Sigma-Aldrich Co. LLC: T8941) was added at a final concentration of 44, 176, 352, 704, 1408 μM to mTeSR1 medium and the proliferation promoting effect of L-tryptophan was examined using the prepared medium. A 6 well plate coated with Matrigel (Japan Becton, Dickinson and Company) as a basement membrane matrix was prepared and 40,000 253G4 cells and 10,000 H9 cells were single cell seeded per well. The next day of cell seeding, evaluation was performed by replacing the medium with the medium prepared as mentioned above. The culture period was set to 6 days, the time of L-tryptophan addition was set to 0 and the cell coating rate was measured using IncuCyte at 24, 48, 72, 96 and 120 hr later. As the medium to be used when seeding, a medium without addition of Y-27632 at a final concentration of 10 μM was used and culturing was performed.

[4] = test system: human embryonic stem cells H9; test: Proliferation promoting effect of L-tryptophan, cell coating rate by IncuCyte, H9; conditions: mTeSR1 medium, final 44-1408 μM, 24-120 hr
Procedure: as §1, §2, §3

[5] = test system: human induced pluripotent stem cells 201B7; test: Proliferation promoting effect of L-tryptophan, cell coating rate by IncuCyte, 201B7; conditions: final 44-1408 μM, 24-120 hr after addition
Procedure: First, the proliferation promoting effect of L-tryptophan on induced pluripotent stem cells (iPS cells) was evaluated using 3 kinds of commercially available media. As the human iPS cell, 201B7 strain purchased from iPS Academia Japan, Inc. was used and cultured under the conditions of 5% CO2/37° C.
L-tryptophan (Sigma-Aldrich Co. LLC: T8941) was added to the media of Essential-8 (Life Technologies Inc.: A1517001), mTeSR1 (STEM CELL Technologies Inc.: 05850), TeSR2 (STEM CELL Technologies Inc.: 05860) at a given concentration, used for culture and the effect thereof was examined.
as §3, with “Essential-8, mTeSR1, TeSR2 media” for “mTeSR1 medium”, “media.” for “medium.”, “13,000” for “40,000 253G4 cells and 10,000 H9”, “using” for “by replacing the medium with”

[6] = test system: human embryonic kidney cell line HEK293T cells; test: Proliferation promoting effect of L-tryptophan, cell coating rate by IncuCyte, HEK293T; conditions: 293T; DMEM with 10% fetal bovine serum; final 44-1408 μM; 24-120 hr
Procedure: Next, the proliferation promoting effect of L-tryptophan was evaluated using human embryonic kidney cell line HEK293T cells. As the medium, DMEM medium (Thermo Fisher Scientific K. K.: 11965) added with 10% fetal bovine serum was used and culturing was performed under 5% CO2/37° C. conditions.
L-tryptophan (Sigma-Aldrich Co. LLC: T8941) was added at a given concentration to DMEM medium (Thermo Fisher Scientific K.K.: 11965) added with 10% fetal bovine serum, used for culture and the effect thereof was examined.
L-tryptophan (Sigma-Aldrich Co. LLC: T8941) was added at a final concentration of 44, 176, 352, 704, 1408 μM to DMEM medium (Thermo Fisher Scientific K.K.: 11965) added with 10% fetal bovine serum and the proliferation promoting effect of L-tryptophan was examined using the prepared medium. A 6 well plate was prepared and 10,000 cells were single cell seeded per well. The next day of cell seeding, evaluation was performed by replacing the medium with the medium prepared as mentioned above. The culture period was set to 6 days, the time of L-tryptophan addition was set to 0 and the cell coating rate was measured using IncuCyte at 24, 48, 72, 96 and 120 hr later.

Compound | cell coating rate (proliferation promoting effect) [1] | expression of undifferentiated marker (OCT, Nanog, alkaline phosphatase) [2] | cell coating rate (proliferation promoting effect) [3] | cell coating rate (proliferation promoting effect) [4] | cell coating rate (proliferation promoting effect) ([5]; Essential-8 medium) | cell coating rate (proliferation promoting effect) ([5]; TeSR2 medium) | cell coating rate (proliferation promoting effect) ([5]; mTeSR1 medium) | cell coating rate (proliferation promoting effect) [6]
Nc1ccccc1C(=O)C[C@H](N)C(=O)O [L-kynurenine] | showed a cell proliferation promoting effect in the L-kynurenine 50-500 μM addition group | – | – | – | – | – | – | –
NC(Cc1c[nH]c2ccccc12)C(=O)O [L-tryptophan, 2-amino-3-(indolyl)propionic acid] | – | not influenced | concentration-dependent proliferation promoting effect of L-tryptophan was also confirmed; also recorded: showed an L-tryptophan concentration-dependent effect of promoting proliferation | concentration-dependent proliferation promoting effect of L-tryptophan was also confirmed; also recorded: showed an L-tryptophan concentration-dependent effect of promoting proliferation | showed a proliferation promoting effect in an L-tryptophan concentration dependent manner; also recorded: showed an L-tryptophan concentration-dependent effect of promoting proliferation | showed a proliferation promoting effect in an L-tryptophan concentration dependent manner; also recorded: showed an L-tryptophan concentration-dependent effect of promoting proliferation | showed a proliferation promoting effect in an L-tryptophan concentration dependent manner; also recorded: showed an L-tryptophan concentration-dependent effect of promoting proliferation | concentration-dependent proliferation promoting effect of L-tryptophan was not confirmed; also recorded: did not show an L-tryptophan concentration-dependent effect of promoting proliferation
O=C(O)c1cc(=O)c2ccccc2[nH]1 [kynurenic acid] | showed a cell proliferation promoting effect in the kynurenic acid 50-500 μM addition group | – | – | – | – | – | – | –
